Patent publication US7825121B2, “Piperazine derivatives useful as CCR5 antagonists” (Schering Corporation, priority 1999, dated 2010)
Structures can show the parent of a compound that is named as a salt. Each block holds one compound with its values, some of them ahead of it.

How the values were obtained:
[1] = target: T1, human CCR5 chemokine receptor (Homo sapiens, UniProt P51681); test: CCR5 membrane binding assay (inhibition of RANTES binding); details: 125I-RANTES, membranes from NIH 3T3 cells expressing human CCR5
T1 construct: expressed in transfected cells; host or cells: NIH 3T3 cells (murine), membranes
T1 sequence (P51681 whole entry): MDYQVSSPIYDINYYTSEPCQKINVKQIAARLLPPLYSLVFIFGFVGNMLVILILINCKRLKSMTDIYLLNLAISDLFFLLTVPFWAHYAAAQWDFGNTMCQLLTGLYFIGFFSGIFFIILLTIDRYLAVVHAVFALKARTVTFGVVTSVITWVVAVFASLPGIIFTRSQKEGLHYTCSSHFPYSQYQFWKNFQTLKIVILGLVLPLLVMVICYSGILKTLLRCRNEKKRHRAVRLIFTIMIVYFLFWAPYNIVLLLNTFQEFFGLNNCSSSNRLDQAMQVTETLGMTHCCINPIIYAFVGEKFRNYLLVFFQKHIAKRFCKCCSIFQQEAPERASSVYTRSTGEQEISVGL
Method: CCR5 Membrane Binding Assay:
A high throughput screen utilizing a CCR5 membrane binding assay identifies inhibitors of RANTES binding. This assay utilizes membranes prepared from NIH 3T3 cells expressing the human CCR5 chemokine receptor which have the ability to bind to RANTES, a natural ligand for the receptor. […] Compounds are serially diluted over a wide range of 0.001 ug/ml to 1 ug/ml and tested in triplicates. Reaction cocktails are harvested through glass fiber filters, and washed thoroughly.
In the table, “Ex. No.” stands for “Example Number” and “nM” stands for “nanomolar.”

[2] = Profiling of Vicriviroc and metabolites in plasma, urine and feces, human; format: in vivo
Method: (§1) HPLC column was maintained at room temperature for all LC-MS and LC-MS^n experiments. The mobile phase, which consisted of 95% 10-mM ammonium acetate (pH 6.0) containing 5% acetonitrile (A) and 95% acetonitrile and 5% water (B), was maintained at a constant flow rate (1 mL/min). For all LC-MS experiments, the column effluent was split to divert 20-25% into TSQ Quantum (ThermoElectron, San Jose, Calif.) mass spectrometer and the balance into a Flow Scintillation Analyzer (FSA) analyzer.
(§2) All LC-MS and LC-MS/MS experiments were performed using a TSQ mass spectrometer (ThermoElectron, San Jose, Calif.) nominally operated under the conditions listed below:
(§3) Radiochromatograms from study samples were examined to locate radioactive peaks corresponding to metabolites. After correcting for the delay time (0.2-0.5 min), each radiolabelled peak was examined for possible molecular ions related to the drug and/or its putative metabolites.

[3] = Profiling of Vicriviroc and metabolites in plasma, urine and feces, monkey; format: in vivo, Monkey (Cynomolgus macaque)
Method: as §1, §2, §3

[4] = Profiling of Vicriviroc and metabolites in plasma, urine and feces, rat; format: in vivo, Rat (Sprague Dawley)
Method: as §1, §2, §3

[5] = Excretion of radioactivity after single oral dose of 14C-Vicriviroc, monkey; format: in vivo, Monkey (Cynomolgus macaque); details: 5 mg/kg single oral, total 0-432 hr
Method: (§4) [drawing 410] was synthesized at Schering-Plough Research Institute (Kenilworth, N.J.) and had >97% radiochemical purity.
(§5) Sample Collection: Urine and feces over selected intervals and blood at selected time points were collected from healthy male volunteers, monkeys and rats through 336-hr, 432-hr and 168-hr post dose, respectively. Radioactivity: Total radioactivity was measured using liquid scintillation spectrometer (LSS). Sample Processing for Profiling and Characterization of Metabolites: Sample Pooling: For each species, plasma samples were pooled across subjects/animals by time point. All the other matrices were first pooled for a desired collection interval within each subject/animal and then across subjects/animals to obtain a composite sample containing >90% of the radioactivity excreted in each respective matrix.

[6] = Excretion of radioactivity after single oral dose of 14C-Vicriviroc, rat; format: in vivo, Rat (Sprague Dawley); details: 6 mg/kg single oral, total 0-168 hr
Method: as §4, §5

- melting point: 187 to 196 °C
SMILES: Cc1ncnc(C)c1C(=O)N1CCC(C)(N2CCN([C@@H](Cc3ccccc3)c3ccc(C(F)(F)F)cc3)[C@@H](C)C2)CC1

- melting point: 180 to 188 °C (dec.)
SMILES: Cc1ccnc(C)c1C(=O)N1CCC(N2CCN(C(c3ccccc3)c3ccccc3)[C@@H](C)C2)CC1 (as salt: hydrochloride) [Example 3C]

- Ki [1]: 9.97 nM
SMILES: Cc1ccnc(C)c1C(=O)N1CCC(N2CCN(C(c3ccccc3)c3ccccc3)[C@@H](C)C2)CC1 [Example 3C]

- melting point: 175 to 178 °C
SMILES: Cc1ncnc(C)c1C(=O)N1CCC(C)(N2CCN(C(c3ccccc3)c3ccccc3)[C@@H](C)C2)CC1 [Example 30C]

- melting point: 177 to 189 °C
SMILES: CCNC(=O)Nc1cc(C)c(C(=O)N2CCC(C)(N3CCN(C(c4ccccc4)c4ccccc4)[C@@H](C)C3)CC2)c(C)c1 [Example 30D]

- melting point: 180 to 192 °C
SMILES: Cc1ncnc(C)c1C(=O)N1CCC(C)(N2CCN(C(c3ccc(C(F)(F)F)cc3)c3ccc(C(F)(F)F)cc3)[C@@H](C)C2)CC1 [Example 30F]

- melting point: 178 to 188 °C
SMILES: CCNC(=O)N(C)c1cc(C)c(C(=O)N2CCC(C)(N3CCN(C(c4ccccc4)c4ccccc4)[C@@H](C)C3)CC2)c(C)c1 [Example 30H]

Continued, compound first:

SMILES: CC[C@@H](c1ccc(OC(F)(F)F)cc1)N1CCN(C2CCN(C(=O)c3c(C)ncnc3C)CC2)C[C@@H]1C [Example 6C]
- Ki [1]: 30 nM
- melting point: 225 °C

SMILES: Cc1cccc(C)c1C(=O)N1CCC(N2CCN([C@@H](C)c3ccc(I)cc3)[C@@H](C)C2)CC1 [Example 11]
- Ki [1]: 10.5 nM

SMILES: Cc1cccc(C)c1C(=O)N1CCC(N2CCN([C@@H](C)c3ccc(Cl)cc3)[C@@H](C)C2)CC1 [Example 13]
- melting point: 180 °C (dec.)

SMILES: Cc1cccc(C)c1C(=O)N1CCC(N2CCN([C@@H](C)c3ccccc3)[C@@H](C)C2)CC1 [Example 15]
- melting point: 195 °C

SMILES: Cc1cccc(C)c1C(=O)N1CCC(N2CCN([C@@H](C)c3ccc(-c4ccccc4)cc3)[C@@H](C)C2)CC1 [Example 16]
- Ki [1]: 60 nM
- melting point: 190 °C

SMILES: Cc1cccc(C)c1C(=O)N1CCC(N2CCN([C@@H](C)c3ccc(Cc4ccc(Cl)cc4)cc3)[C@@H](C)C2)CC1 [Example 17]
- melting point: 170 °C (dec.)

SMILES: CC(=O)c1ccc([C@H](C)N2CCN(C3CCN(C(=O)c4c(N)cccc4Cl)CC3)C[C@@H]2C)cc1 [Example 18]
- melting point: 210 °C

SMILES: CC(=O)c1ccc([C@H](C)N2CCN(C3(C)CCN(C(=O)c4c(C)cccc4C)CC3)C[C@@H]2C)cc1 [Example 22]
- melting point: 80 to 85 °C

SMILES: CCC[C@@H](c1ccc(OC(F)(F)F)cc1)N1CCN(C2(C)CCN(C(=O)c3c(C)ncnc3C)CC2)C[C@@H]1C [Example 30A]
- melting point: 241 °C

SMILES: CCC[C@@H](c1ccc(OC(F)(F)F)cc1)N1CCN(C2(C)CCN(C(=O)c3c(C)cc(NC(=O)NCC)cc3C)CC2)C[C@@H]1C [Example 30B]
- melting point: 219 °C

SMILES: C[C@H]1CN(C2(C)CCN(C(=O)C3(c4ccc(C#N)cc4)CC3)CC2)CCN1C(c1ccccc1)c1ccccc1 [Example 30E]
- melting point: 84 to 90 °C

SMILES: CCC[C@@H](c1ccc(OC(F)(F)F)cc1)N1CCN(C2(C)CCN(C(=O)c3c(C)cccc3C)CC2)C[C@@H]1C [Example 30]
- melting point: 237 °C

SMILES: Cc1ncnc(C)c1C(=O)N1CCC(C)(N2CCN(C(COC3OC(C(=O)O)C(O)C(O)C3O)c3ccc(C(F)(F)F)cc3)C(C)C2)CC1 (centres unmarked) [Example M35, O-desmethyl-VIC-glucuronide]
- circulating drug derived component in plasma ([2]; human plasma): prominent circulating metabolite
- % of the dose in urine ([2]; human urine): 11%
- circulating drug derived component in plasma ([3]; monkey plasma): prominent circulating metabolite
- % of the dose in urine ([3]; monkey urine): 3%
- circulating drug derived component in plasma ([4]; rat plasma): only detected in trace quantities
- % of the dose in urine ([4]; rat urine): less than 1%

SMILES: COC[C@@H](c1ccc(C(F)(F)F)cc1)N1CCN(C2(C)CCN(C(=O)c3c(C)ncnc3C)CC2)C[C@@H]1C [^14C-Vicriviroc, 1-[(4,6-dimethyl-5-pyrimidinyl)carbonyl]-4-[4-[2-methoxy-1 (R)-[4-(trifluoromethyl)phenyl]ethyl]-3(S)-methyl-1-piperazinyl]-4-methylpiperidine]
- Excretion of radioactivity as % of dose, feces ([5]; monkey female): 56.4 % of dose
- Excretion of radioactivity as % of dose, urine ([5]; monkey female): 25.8 % of dose
- Excretion of radioactivity as % of dose, feces ([5]; monkey male): 48.6 % of dose
- Excretion of radioactivity as % of dose, urine ([5]; monkey male): 26.3 % of dose
- Excretion of radioactivity as % of dose, feces ([6]; rat female): 72.9 % of dose
- Excretion of radioactivity as % of dose, urine ([6]; rat female): 15.6 % of dose
- Excretion of radioactivity as % of dose, feces ([6]; rat male): 69.1 % of dose
- Excretion of radioactivity as % of dose, urine ([6]; rat male): 18.0 % of dose
